Results: US20230331803A1, “CO-AGONISTS OF THE GLP-1 AND AMYLIN RECEPTORS” (priority 2020, published 2023)
Where two headings read alike, the source gives them in different places. Starred links: 1 amine or outer side, 2 acyl side, 3 side chain; linkers in the order of their positions; H or OH if unused. Positions of bridges follow the written chain, without caps; N, C: chain ends. Non-standard residues stand in square brackets, D forms with d. Groups on a side chain read outwards from the residue. *: point of attachment. Butyryl(4-SO2NHCO(CH2)16Tz) = O=C(CCCCCCCCCCCCCCCCc1nnn[nH]1)NS(=O)(=O)CCCC(=O)*; Hexadecanoyl(16-SO3H) = O=C(CCCCCCCCCCCCCCCS(=O)(=O)O)*; C20 diacid = O=C(O)CCCCCCCCCCCCCCCCCCC(=O)*; C18 diacid = O=C(O)CCCCCCCCCCCCCCCCC(=O)*; C16 diacid = O=C(O)CCCCCCCCCCCCCCC(=O)*; γGlu = O=C(O)[C@H](CCC(=O)[*:2])N[*:1]; X2 = O=C(CCCCCCCCCCCCCCCCc1nnn[nH]1)*; εLys = N[C@@H](CCCCN[*:1])C(=O)[*:2]; Trx = NC[C@H]1CC[C@H](C(=O)O)CC1; AEEA = NCCOCCOCC(=O)O; Aib = CC(C)(N)C(=O)O; Ahx = NCCCCCC(=O)O

Legend:
[1] = biological target: T1, human amylin receptor (hAmyR3) (Homo sapiens, UniProt O60896+P30988); assay: Human amylin receptor in vitro potency assay (CRE-luciferase reporter, BHK cells); format: cell-based;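 also: BHK cells expressing human calcitonin receptor plus RAMP3 (amylin-3 receptor) with a CRE-luciferase reporter, agonist activity read as luminescence from cAMP-driven transcription, 7-point serial dilutions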
T1 construct: host or cells: BHK cells (Hollex-1 line: human calcitonin receptor (a) + CRE-Luc), further transfected with human RAMP3

[2] = biological target: T2, human GLP-1 receptor (Homo sapiens, UniProt P43220); assay: Human GLP-1 receptor in vitro potency assay (CRE-luciferase reporter, BHK cells); format: cell-based
T2 construct: expressed in transfected cells; host or cells: BHK (Baby Hamster Kidney) cells, clone BHK 467-12A KZ-10, stably transfected, with CRE-luciferase reporter
Experimental: It is thus possible to measure GLP-1 receptor activity using a CRE-luciferase reporter gene introduced into Baby Hamster Kidney (BHK) cells co-expressing the GLP-1 receptor.
Cells were aliquoted and stored at -180° C. until use.
Plates were sealed and incubated at room temperature with gentle shaking for 30 minutes while protected from light. Luminescence was detected on a luminescence plate reader e.g. a Synergy 2 (BioTek).

[3] = Table 4a, BHK hAmyR3/CRE-Luc cells, 3 hours, read-out: Human AmyR3 potency [EC50 (pM)]
[4] = Table 4a, BHK cells expressing human GLP-1R, CRE-Luc, 3 hours, read-out: Human GLP-1R potency [EC50 (pM)]

T2 sequence (P43220 24-463): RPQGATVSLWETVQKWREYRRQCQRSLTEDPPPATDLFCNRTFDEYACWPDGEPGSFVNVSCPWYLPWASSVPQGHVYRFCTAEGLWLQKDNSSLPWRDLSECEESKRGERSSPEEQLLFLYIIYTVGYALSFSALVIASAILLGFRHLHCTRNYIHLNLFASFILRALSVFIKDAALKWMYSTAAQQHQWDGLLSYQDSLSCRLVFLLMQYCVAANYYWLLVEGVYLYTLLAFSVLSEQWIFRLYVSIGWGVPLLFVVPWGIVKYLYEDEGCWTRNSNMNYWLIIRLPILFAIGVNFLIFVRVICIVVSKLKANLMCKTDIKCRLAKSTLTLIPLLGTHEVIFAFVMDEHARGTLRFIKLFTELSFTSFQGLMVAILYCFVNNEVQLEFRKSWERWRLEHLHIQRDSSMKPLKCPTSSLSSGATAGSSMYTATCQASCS
T1 sequence (P30988 25-474): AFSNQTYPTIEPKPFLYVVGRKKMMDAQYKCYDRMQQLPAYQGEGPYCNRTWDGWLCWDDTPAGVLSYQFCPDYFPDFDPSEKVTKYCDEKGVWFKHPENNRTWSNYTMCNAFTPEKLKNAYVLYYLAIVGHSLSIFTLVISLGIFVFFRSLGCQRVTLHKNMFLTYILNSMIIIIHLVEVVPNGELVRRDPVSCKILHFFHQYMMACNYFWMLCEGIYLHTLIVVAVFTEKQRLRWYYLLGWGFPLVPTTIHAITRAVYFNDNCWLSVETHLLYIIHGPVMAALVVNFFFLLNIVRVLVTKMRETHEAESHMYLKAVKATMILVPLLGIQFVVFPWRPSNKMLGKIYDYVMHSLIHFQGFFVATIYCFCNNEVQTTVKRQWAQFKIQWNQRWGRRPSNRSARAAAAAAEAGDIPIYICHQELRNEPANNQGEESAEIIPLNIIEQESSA
T1 sequence (O60896 24-148): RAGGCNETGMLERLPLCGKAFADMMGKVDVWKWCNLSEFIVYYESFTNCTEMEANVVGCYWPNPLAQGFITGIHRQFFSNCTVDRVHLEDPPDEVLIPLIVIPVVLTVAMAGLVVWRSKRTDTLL

Substance | EC50 [1, 3] [pM] | EC50 [2, 4] [pM] | further results
H-H[Aib]EGTFTSDVSSYLEEQAAREFIAWLVRGK([AEEA-AEEA-γGlu-C16 diacid])GGGGGEASELSTAALGRLSAELHELATLK([AEEA-AEEA-γGlu-C16 diacid])RTETGSGSP-NH2 [Compound 0284] | 32.8 | 41.7 | –
H-H[Aib]EGTFTSDVSSYLEEQAAREFIAWLVRGK([AEEA-AEEA-γGlu-C16 diacid])GGGGGEASELSTAALGRLSAELHELATLPRTETGK([AEEA-AEEA-γGlu-C16 diacid])GSP-NH2 [Compound 0285] | 78.9 | 19 | –
H-H[Aib]EGTFTSDVSSYLEEQAAREFIAWLVRGK([AEEA-AEEA-γGlu-C16 diacid])GGGGGEASELSTAALGRLSAELHELK([AEEA-AEEA-γGlu-C16 diacid])TLPRTETGSGSP-NH2 [Compound 0281] | 114 | 35.2 | –
H-H[Aib]EGTFTSDVSSYLEEQAAREFIAWLVRGK([AEEA-AEEA-γGlu-C16 diacid])GGGGGEASELSTAALGRLSAELHK([AEEA-AEEA-γGlu-C16 diacid])LATLPRTETGSGSP-NH2 [Compound 0280] | 18 | 34.3 | –
H-H[Aib]EGTFTSDVSSYLEEQAAREFIAWLVRGK([AEEA-AEEA-γGlu-C18 diacid])GGEASELSTAALGRLSAELHELATLPRTETGSGSP-NH2 [Compound 0132] | 34.9 | 3 | –
H-H[Aib]EGTFTSDVSSYLEEQAAREFIAWLVRGRGK(Butyryl(4-SO2NHCO(CH2)16Tz))GGGASELSTAALGRLSAELHELATLPRTETGSGSP-NH2 [Compound 0145] | 16.5 | 11.9 | –
H-H[Aib]EGTFTSDVSSYLEEQAAREFIAWLVRGRK(Butyryl(4-SO2NHCO(CH2)16Tz))ELSTAALGRLSAELHELATLPRTETGSGSP-NH2 [Compound 0102] | 9.8 | 14.7 | –
H-H[Aib]EGTFTSDVSSYLEEQAAREFIAWLVRGRK([AEEA-AEEA-AEEA-AEEA-γGlu-C18 diacid])GGGGEASELSTAALGRLSAELHELATLPRTETGSGSP-NH2 [Compound 0662] | 14.6 | 3 | –
H-H[Aib]EGTFTSDVSSYLEEQAAREFIAWLVRGRK([AEEA-AEEA-AEEA-AEEA-γGlu-C20 diacid])GGGGEASELSTAALGRLSAELHELATLPRTETGSGSP-NH2 [Compound 0663] | 12.6 | 3.2 | –
H-H[Aib]EGTFTSDVSSYLEEQAAREFIAWLVRGRK([AEEA-AEEA-AEEA-γGlu-C18 diacid])GGGGEASELSTAALGRLSAELHELATLPRTETGSGSP-NH2 [Compound 0661] | 14.4 | 2.8 | –
H-H[Aib]EGTFTSDVSSYLEEQAAREFIAWLVRGRK([AEEA-AEEA-γGlu-C18 diacid])EASELSTAALGRLSAELHELATLPRTETGSGSP-NH2 [Compound 0115] | 22.8 | 2.2 | –
H-H[Aib]EGTFTSDVSSYLEEQAAREFIAWLVRGRK([AEEA-AEEA-γGlu-C18 diacid])GGEASELSTAALGRLSAELHELATLPRTETGSGSP-NH2 [Compound 0114] | 17.5 | 1 | –
H-H[Aib]EGTFTSDVSSYLEEQAAREFIAWLVRGRK([AEEA-AEEA-γGlu-C18 diacid])GGGGEKCNTATCATQRLANFLVHSSNNFGPILPPTNVGSNTY-NH2 (disulfide 38-43 (inferred)) [Comparator compound 0671, reference compound] | – | – | EC50 [1]: 230 pM; Ability to agonise the amylin receptor, in words ([1]; Tables 4a-4c): impaired potency on the amylin receptor; EC50 [2]: 4.5 pM; Ability to agonise the GLP-1 receptor, in words ([2]; Tables 4a-4c): retained their potencies on the GLP-1 receptor
H-H[Aib]EGTFTSDVSSYLEEQAAREFIAWLVRGRK([AEEA-AEEA-γGlu-C18 diacid])GGGGSGGGEASELSTAALGRLSAELHELATLPRTETGSGSP-NH2 [Compound 0637] | 14.1 | 1.9 | –
H-H[Aib]EGTFTSDVSSYLEEQAAREFIAWLVRGRK([AEEA-AEEA-γGlu-C20 diacid])GGGGSGGGEASELSTAALGRLSAELHELATLPRTETGSGSP-NH2 [Compound 0638] | 6.9 | 4.6 | –
H-H[Aib]EGTFTSDVSSYLEEQAAREFIAWLVRGRK([AEEA-AEEA-γGlu-Hexadecanoyl(16-SO3H)])GGGGEASELSTAALGRLSAELHELATLPRTETGSGSP-NH2 [Compound 0654] | 11.3 | 2.9 | –
H-H[Aib]EGTFTSDVSSYLEEQAAREFIAWLVRGRK([AEEA-AEEA-γGlu-X2])GGGGEASELSTAALGRLSAELHELATLPRTETGSGSP-NH2 [Compound 0655] | 11.4 | 3 | –
H-H[Aib]EGTFTSDVSSYLEEQAAREFIAWLVRGRK([AEEA-γGlu-C18 diacid])GGGGEASELSTAALGRLSAELHELATLPRTETGSGSP-NH2 [Compound 0660] | 12.7 | 3.9 | –
H-H[Aib]EGTFTSDVSSYLEEQAAREFIAWLVRGRK([Ahx-Ahx-γGlu-C18 diacid])GGGGEASELSTAALGRLSAELHELATLPRTETGSGSP-NH2 [Compound 0658] | 11 | 3.1 | –

Substance | EC50 [1, 3] [pM] | EC50 [2, 4] [pM] | further results
H-H[Aib]EGTFTSDVSSYLEEQAAREFIAWLVRGRK([Ahx-Ahx-γGlu-C20 diacid])GGGGEASELSTAALGRLSAELHELATLPRTETGSGSP-NH2 [Compound 0659] | 11.5 | 4.7 | –
H-H[Aib]EGTFTSDVSSYLEEQAAREFIAWLVRGRK([γGlu-C20 diacid])EASELSTAALGRLSAELHELATLPRTETGSGSP-NH2 [Compound 0141] | 13.2 | 43.3 | –
H-H[Aib]EGTFTSDVSSYLEEQAAREFIAWLVRGRK([εLys-εLys-γGlu-C18 diacid])GGGGEASELSTAALGRLSAELHELATLPRTETGSGSP-NH2 [Compound 0656] | 13.3 | 4.1 | –
H-H[Aib]EGTFTSDVSSYLEEQAAREFIAWLVRGRK([εLys-εLys-γGlu-C20 diacid])GGGGEASELSTAALGRLSAELHELATLPRTETGSGSP-NH2 [Compound 0657] | 10.4 | 9.9 | –
H-H[Aib]EGTFTSDVSSYLEEQAAREFIAWLVRK([AEEA-AEEA-γGlu-C16 diacid])RGGGGGASELSTAALGRLSK([AEEA-AEEA-γGlu-C16 diacid])ELHELATLPRTETGSGSP-NH2 [Compound 0297] | 46 | 30.2 | –
H-H[Aib]EGTFTSDVSSYLEEQAAREFIEWLVRGK(Butyryl(4-SO2NHCO(CH2)16Tz))ASELSTAALGRLSAELHELATLPRTETGSGSP-NH2 [Compound 0147] | 33.7 | 36.8 | –
H-H[Aib]EGTFTSDVSSYLEEQAAREFIEWLVRGK(Butyryl(4-SO2NHCO(CH2)16Tz))GGGASELSTAALGRLSAELHELATLPRTETGSGSP-NH2 [Compound 0146] | 14 | 25.7 | –
H-H[Aib]EGTFTSDVSSYLEEQAAREFIEWLVRGRK([AEEA-AEEA-γGlu-Trx-C20 diacid])EAEAEASELSTAALGRLSAELHELATLPRTETGSGSP-NH2 [Compound 0179] | 35.9 | 8.8 | –
H-H[Aib]EGTFTSDVSSYLEEQAAREFIEWLVRGRK([εLys-AEEA-AEEA-γGlu-Trx-C20 diacid])EASELSTAALGRLSAELHELATLPRTETGSGSP-NH2 [Compound 0438] | 27.5 | 11.8 | –
H-H[Aib]EGTFTSDVSSYLEEQAARK(Butyryl(4-SO2NHCO(CH2)16Tz))FIAWLVRGRGEASELSTAALGRLSAELHELATLPRTETGSGSP-NH2 [Compound 0125] | 12.2 | 8 | –
H-H[Aib]EGTFTSDVSSYLEEQAARK([AEEA-AEEA-γGlu-C16 diacid])FIAWLVK([AEEA-AEEA-γGlu-C16 diacid])GRGGGEASELSTAALGRLSAELHELATLPRTETGSGSP-NH2 [Compound 0077] | 25.7 | 2.1 | –
H-H[Aib]EGTFTSDVSSYLEEQAARK([AEEA-AEEA-γGlu-C16 diacid])FIAWLVRGRGGGGGASELSTAALGRLSK([AEEA-AEEA-γGlu-C16 diacid])ELHELATLPRTETGSGSP-NH2 [Compound 0296] | 29.9 | 4 | –
H-H[Aib]EGTFTSDVSSYLEEQAARK([AEEA-AEEA-γGlu-C16 diacid])FIAWLVRGRGGGGGEASELSTAALGRLSAELHK([AEEA-AEEA-γGlu-C16 diacid])LATLPRTETGSGSP-NH2 [Compound 0509] | 29.9 | 7.1 | –
H-H[Aib]EGTFTSDVSSYLEEQAARK([AEEA-AEEA-γGlu-C16 diacid])FIEWLVRGK([AEEA-AEEA-γGlu-C16 diacid])GEGGEASELSTAALGRLSAELHELATLPRTETGSGSP-NH2 [Compound 0086] | 78.3 | 3.9 | –
H-H[Aib]EGTFTSDVSSYLEEQAARK([AEEA-AEEA-γGlu-C18 diacid])FIAWLVRGRGGGGGEASELSTAALGRLSAELHELATLPRTETGSGSP-NH2 [Compound 0639] | 4.6 | 1.5 | –
H-H[Aib]EGTFTSDVSSYLEEQAARK([AEEA-AEEA-γGlu-C18 diacid])FIEWLVRGK([AEEA-AEEA-γGlu-C18 diacid])GEGGEASELSTAALGRLSAELHELATLPRTETGSGSP-NH2 [Compound 0089] | 65.5 | 5.7 | –
H-H[Aib]EGTFTSDVSSYLEEQAARK([AEEA-AEEA-γGlu-C18 diacid])FIEWLVRGK([AEEA-AEEA-γGlu-C18 diacid])GGEASELSTAALGRLSAELHELATLPRTETGSGSP-NH2 [Compound 0128] | 110 | 9.7 | –
H-H[Aib]EGTFTSDVSSYLEEQAARK([AEEA-AEEA-γGlu-C18 diacid])FIEWLVRGRK([AEEA-AEEA-γGlu-C18 diacid])GGEASELSTAALGRLSAELHELATLPRTETGSGSP-NH2 [Compound 0129] | 23.5 | 1.2 | –
H-H[Aib]EGTFTSDVSSYLEEQAARK([AEEA-AEEA-γGlu-C20 diacid])FIAWLVRGRGGGGGEASELSTAALGRLSAELHELATLPRTETGSGSP-NH2 [Compound 0562] | 4.1 | 19.3 | –
